Measured values taken from patent publication US8883846B2, “Synthesis of bicyclic compounds and method for their use as therapeutic agents” (priority 2010, dated 2014).
Values joined by “and” are separate entries in the source; they are usually repeats but may differ in a detail not shown here. Equal values may be shown once. Read-outs that look alike come from different tables or passages of the source.

Key:
[1] = biological target: recombinant H1N1 neuraminidase (Influenza A virus (strain A/Puerto Rico/8/1934 H1N1), UniProt P03468); assay: biochemical; format: biochemical
Chain of recombinant H1N1 neuraminidase (P03468 36-454 limits assumed): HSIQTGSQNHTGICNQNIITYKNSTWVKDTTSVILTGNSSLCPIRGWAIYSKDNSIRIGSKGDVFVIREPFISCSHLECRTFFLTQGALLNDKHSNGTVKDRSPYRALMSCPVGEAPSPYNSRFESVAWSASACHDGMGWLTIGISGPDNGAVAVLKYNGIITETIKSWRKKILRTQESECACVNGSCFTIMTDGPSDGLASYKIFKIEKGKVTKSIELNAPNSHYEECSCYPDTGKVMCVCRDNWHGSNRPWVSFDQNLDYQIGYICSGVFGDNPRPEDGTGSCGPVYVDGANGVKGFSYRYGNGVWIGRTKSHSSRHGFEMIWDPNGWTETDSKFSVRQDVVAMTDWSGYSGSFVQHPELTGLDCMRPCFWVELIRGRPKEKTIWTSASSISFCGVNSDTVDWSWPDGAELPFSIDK

[2] = biological target: neuraminidase of NP40-inactivated influenza A/Brisbane/59/2007(H1N1) (Influenza A virus, UniProt D5F1R0); assay: In vitro neuraminidase assay vs. NP40-inactivated influenza virus; format: biochemical
Chain of neuraminidase of NP40-inactivated influenza A/Brisbane/59/2007(H1N1) (D5F1R0 1-470): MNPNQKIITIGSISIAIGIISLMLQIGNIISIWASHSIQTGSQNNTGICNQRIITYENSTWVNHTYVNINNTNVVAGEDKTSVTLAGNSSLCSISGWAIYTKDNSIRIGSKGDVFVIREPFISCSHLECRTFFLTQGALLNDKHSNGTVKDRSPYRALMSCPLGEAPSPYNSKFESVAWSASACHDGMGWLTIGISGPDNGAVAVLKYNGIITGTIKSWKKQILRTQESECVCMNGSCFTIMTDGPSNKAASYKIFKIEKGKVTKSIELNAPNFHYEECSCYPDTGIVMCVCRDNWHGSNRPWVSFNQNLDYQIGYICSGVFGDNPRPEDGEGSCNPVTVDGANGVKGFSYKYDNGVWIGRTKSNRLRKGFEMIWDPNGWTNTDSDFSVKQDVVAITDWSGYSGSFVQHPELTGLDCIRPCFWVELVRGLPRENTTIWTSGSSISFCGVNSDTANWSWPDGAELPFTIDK

neuraminidase = settings: background statement; cited from earlier work
[3] = NP40-inactivated influenza A/Brisbane/59/2007(H1N1), read-out: IC50
[4] = NP40-inactivated virus, Lineweaver-Burk analysis

In the case of C[C@@H]1C[C@](O)(C(=O)O)[C@H]2CCS(=O)(=O)[C@@H]12 [Compound 20], the IC50 [1] is reported as 4 mM, the “Inhibition Mode” value [1] is reported as “mixed” and the “inhibition of commercially available recombinant H1N1 neuraminidase” value [1] is reported as “dose-dependent inhibition”.

Compound C[C@@H]1C[C@](O)(C(=O)O)[C@H]2C[C@H](Cc3ccccc3)S(=O)(=O)[C@@H]12 [Compound 21] has an IC50 [1] of over 10 mM.

For N=C(N)N[C@@H]1C[C@](O)(C(=O)O)[C@H]2CCS(=O)(=O)[C@@H]12 [Compound 27], the IC50 [2, 3] was 3.7 mM and 3.8 mM, the “Inhibition Mode” value [2, 4] was “competitive” and the Ki ([2]; NP40-inactivated virus, estimated from Km versus inhibitor concentration, read-out: Ki) was 1 mM.

With CC(=O)N[C@H]1CS(=O)(=O)[C@H]2[C@@H]1[C@H](N)C[C@@H]2C(=O)O [Compound 31] the IC50 [2, 3] was 0.092 mM and the “Inhibition Mode” value [2, 4] was “competitive”.

In the case of CC(=O)N[C@H]1CS(=O)(=O)[C@H]2[C@@H]1[C@H](NC(=N)N)C[C@@H]2C(=O)O [Compound 32], the “Inhibition Mode” value [2] is reported as “competitive”, the Ki [2] is reported as 0.005 mM and the IC50 ([2]; IC50) is reported as 0.03 mM.

For CCOC(=O)C1=C[C@@H](OC(CC)CC)[C@H](NC(C)=O)[C@@H](N)C1 [oseltamivir], the “effective concentration as neuraminidase inhibitor” value (neuraminidase) is listed as “around 1 nM”.

For CCC(CC)[C@H](NC(C)=O)[C@@H]1[C@H](O)[C@@H](C(=O)O)C[C@H]1N=C(N)N [peramivir], the “potency relative to oseltamivir” value (neuraminidase) is listed as “roughly ten-fold”.
